Measurements: patent US10081631B2, “2-(1H-indazol-3-yl)-1H-imidazo[4,5-C]pyridine and therapeutic uses thereof” (Samumed, LLC, priority 2014, dated 2018)

Assays:
[1] = system: Wnt activity (Sp5-Luc reporter, SW480 colon carcinoma cells); experiment: Screening assay for Wnt activity: Sp5-Luc reporter gene assay in SW480 cells; assay type: cell-based; details: Homo sapiens, 42 h incubation, luminescence
Description: The screening assay for Wnt activity is described as follows. Reporter cell lines can be generated by stably transducing cancer cell lines (e.g., colon cancer) or primary cells (e.g., IEC-6 intestinal cells) with a lentiviral construct that includes a Wnt-responsive promoter driving expression of the firefly luciferase gene.
SW480 colon carcinoma cells were transduced with a lentiviral vector expressing luciferase with a human Sp5 promoter consisting of a sequence of eight TCF/LEF binding sites. SW480 cells stably expressing the Sp5-Luc reporter gene and a hygromycin resistance gene were selected by treatment with 150 μg/ml of hygromycin for 7 days. These stably transduced SW480 cells were expanded in cell culture and used for all further screening activities. For Sp5-Luc reporter gene assays, the cells were plated at 10,000 cells/well in 96-well plates with growth medium containing 10% fetal calf serum and incubated overnight at 37° C. and 5% CO2. Each compound was dissolved in DMSO as a 10 mM stock in standard j-vials and used to prepare compound source plates in dose-response format with 3-fold serial dilutions and a 10 mM top concentration. Compound transfer from serially diluted source plates to assay plates containing the cells was accomplished using a pintool (Multimek 96, Beckman equipped with V&P Scientific FP1S50H pins) based liquid handling protocol. This protocol used a slotted pin to transfer 50 nl of compound from a source plate well to an assay plate well containing 50 μl of cells in growth medium. […] Control wells received 50 nl of DMSO treatment for normalization and calculating IC50 values. The treated cells were incubated at 37° C. and 5% CO2 for an additional forty-two hours. Following incubation, the growth medium was removed and 50 μl of BrightGlo luminescence reagent (Promega) was added to each well of the 96-well assay plates. The plates were placed on an orbital shaker for 5 min and then luminescence was quantified on the Victor3 (Perkin Elmer) plate reader. Readings were normalized to DMSO only treated cells, and normalized activities were utilized for IC50 calculations using the dose-response log (inhibitor) vs. response-variable slope (four parameters) nonlinear regression feature available in GraphPad Prism 5.0 or 6.0.

[2] = system: primary human fibroblasts derived from IPF patients (LL29 cells); experiment: Inhibition of fibrosis: TGF-β1-treated primary human fibroblasts from IPF patients (LL29), αSMA staining; assay type: cell-based; details: Fibroblast, 96 h, TGF-β1 20 ng/mL, 4 days, % αSMA-positive cells
Description: The above synthesized compounds were screened using primary human fibroblasts (derived from IPF patients) treated with TGF-β1 to determine their ability to inhibit the fibrotic process.
Primary human fibroblasts derived from IPF patients (LL29 cells) [^1Xiaoqiu Liu, et. al., “Fibrotic Lung Fibroblasts Show Blunted Inhibition by cAMP Due to Deficient cAMP Response Element-Binding Protein Phosphorylation”, Journal of Pharmacology and Experimental Therapeutics (2005), 315(2), 678-687; ^2Watts, K. L., et. al., “RhoA signaling modulates cyclin D1 expression in human lung fibroblasts; implications for idiopathic pulmonary fibrosis”, Respiratory Research (2006), 7(1), 88] were obtained from American Type Culture Collection (ATCC) and expanded in F12 medium supplemented with 15% Fetal Bovine Serum and Penicillin/Streptomycin.
Each compound was dissolved in DMSO as a 10 mM stock and used to prepare compound source plates. Serial dilution (1:2, 11-point dose-response curves from 10 μM to 1.87 nM) and compound transfer was performed using the ECHO 550 (Labcyte, Sunnyvale, Calif.) into 384-well clear bottom assay plates (Greiner Bio-One) with appropriate DMSO backfill for a final DMSO concentration of 0.1%. LL29 cells were plated at 1,500 cells/well in 80 μl/well F12 medium supplemented with 1% Fetal Bovine Serum. One hour after addition of the cells, TGF-β1 (Peprotech; 20 ng/mL) was added to the plates to induce fibrosis (ref 1 and 2 above). Wells treated with TGF-β1 and containing DMSO were used as controls. Cells were incubated at 37° C. and 5% CO2 for 4 days. Following incubation for 4 days, SYTOX green nucleic acid stain (Life Technologies [Thermo Fisher Scientific]) was added to the wells at a final concentration of 1 uM and incubated at room temperature for 30 min. Cells were then fixed using 4% formaldehyde (Electron Microscopy Sciences), washed 3 times with PBS followed by blocking and permeabilization using 3% Bovine Serum Albumin (BSA; Sigma) and 0.3% Triton X-100 (Sigma) in PBS. Cells were then stained with antibody specific to α-smooth muscle actin (αSMA; Abcam) (ref 1 and 2 above) in 3% Bovine Serum Albumin (BSA; Sigma) and 0.3% Triton X-100 (Sigma) in PBS, and incubated overnight at 4° C. Cells were then washed 3 times with PBS, followed by incubation with Alexa Flor-647 conjugated secondary antibody (Life Technologies [Thermo Fisher Scientific]) and DAPI at room temperature for 1 hour. Cells were then washed 3 times with PBS and plates were sealed for imaging. αSMA staining was imaged by excitation at 630 nm and emission at 665 nm and quantified using the Compartmental Analysis program on the CellInsight CX5 (Thermo Scientific). Dead or apoptotic cells were excluded from analysis based on positive SYTOX green staining. % of total cells positive for αSMA were counted in each well and normalized to the average of 11 wells treated with TGF-β1 on the same plate using Dotmatics' Studies Software. The normalized averages (fold change over untreated) of 3 replicate wells for each compound concentration were used to create dose-responses curves and EC50 values were calculated using non-linear regression curve fit in the Dotmatics' Studies Software. The EC50 values are reported.

| Structure (SMILES) | IC50 [1] | EC50 [2] |
| --- | --- | --- |
| CCC(=O)Nc1cncc(-c2ccc3[nH]nc(-c4nc5c(-c6cccc(F)c6)nccc5[nH]4)c3c2)c1 [Compound 1, N-(5-(3-(4-(3-Fluorophenyl)-1H-imidazo[4,5-c]pyridin-2-yl)-1H-indazol-5-yl)pyridin-3-yl)propionamide] | 1 nM | 20 nM |
| CC(C)CC(=O)Nc1cncc(-c2ccc3[nH]nc(-c4nc5c(-c6cccc(F)c6)nccc5[nH]4)c3c2)c1 [Compound 2, N-(5-(3-(4-(3-Fluorophenyl)-1H-imidazo[4,5-c]pyridin-2-yl)-1H-indazol-5-yl)pyridin-3-yl)-3-methylbutanamide] | 5 nM | 9 nM |
| CN(C)c1cncc(-c2ccc3[nH]nc(-c4nc5c(-c6cccc(F)c6)nccc5[nH]4)c3c2)c1 [Compound 7, 5-(3-(4-(3-Fluorophenyl)-1H-imidazo[4,5-c]pyridin-2-yl)-1H-indazol-5-yl)-N,N-dimethylpyridin-3-amine] | 4 nM | 9 nM |
| CN(C)Cc1cncc(-c2ccc3[nH]nc(-c4nc5c(-c6cccc(F)c6)nccc5[nH]4)c3c2)c1 [Compound 13, 1-(5-(3-(4-(3-Fluorophenyl)-1H-imidazo[4,5-c]pyridin-2-yl)-1H-indazol-5-yl)pyridin-3-yl)-N,N-dimethylmethanamine] | 1 nM | 9 nM |
| O=C(Nc1cncc(-c2ccc3[nH]nc(-c4nc5c(-c6cccc(F)c6)nccc5[nH]4)c3c2)c1)C1CC1 [Compound 19, N-(5-(3-(4-(3-Fluorophenyl)-1H-imidazo[4,5-c]pyridin-2-yl)-1H-indazol-5-yl)pyridin-3-yl)cyclopropanecarboxamide] | 1 nM | 9 nM |
| O=C(Nc1cncc(-c2ccc3[nH]nc(-c4nc5c(-c6cccc(F)c6)nccc5[nH]4)c3c2)c1)C1CCCC1 [Compound 21, N-(5-(3-(4-(3-Fluorophenyl)-1H-imidazo[4,5-c]pyridin-2-yl)-1H-indazol-5-yl)pyridin-3-yl)cyclopentanecarboxamide] | 12.8 nM | 317 nM |
| Fc1cccc(-c2nccc3[nH]c(-c4n[nH]c5ccc(-c6cncc(CN7CCC(F)(F)C7)c6)cc45)nc23)c1 [Compound 25, 2-(5-(5-((3,3-Difluoropyrrolidin-1-yl)methyl)pyridin-3-yl)-1H-indazol-3-yl)-4-(3-fluorophenyl)-1H-imidazo[4,5-c]pyridine] | 10 nM | 56 nM |
| CC(C)CC(=O)Nc1cncc(-c2ccc3[nH]nc(-c4nc5c(-c6ccc(F)cc6)nccc5[nH]4)c3c2)c1 [Compound 28, N-(5-(3-(4-(4-Fluorophenyl)-1H-imidazo[4,5-c]pyridin-2-yl)-1H-indazol-5-yl)pyridin-3-yl)-3-methylbutanamide] | 9 nM | 9 nM |
| CC(C)(C)C(=O)Nc1cncc(-c2ccc3[nH]nc(-c4nc5c(-c6ccc(F)cc6)nccc5[nH]4)c3c2)c1 [Compound 34, N-(5-(3-(4-(4-fluorophenyl)-1H-imidazo[4,5-c]pyridin-2-yl)-1H-indazol-5-yl)pyridin-3-yl)pivalamide] | 13 nM | 9 nM |
| CC(C)Nc1cncc(-c2ccc3[nH]nc(-c4nc5c(-c6ccc(F)cc6)nccc5[nH]4)c3c2)c1 [Compound 38, 5-(3-(4-(4-Fluorophenyl)-1H-imidazo[4,5-c]pyridin-2-yl)-1H-indazol-5-yl)-N-isopropylpyridin-3-amine] | 42.9 nM | 126 nM |
| Fc1ccc(-c2nccc3[nH]c(-c4n[nH]c5ccc(-c6cncc(CN7CCCC7)c6)cc45)nc23)cc1 [Compound 40, 4-(4-Fluorophenyl)-2-(5-(5-(pyrrolidin-1-ylmethyl)pyridin-3-yl)-1H-indazol-3-yl)-1H-imidazo[4,5-c]pyridine] | 75 nM | 24 nM |
| O=C(Nc1cncc(-c2ccc3[nH]nc(-c4nc5c(-c6ccc(F)cc6)nccc5[nH]4)c3c2)c1)C1CCC1 [Compound 46, N-(5-(3-(4-(4-Fluorophenyl)-1H-imidazo[4,5-c]pyridin-2-yl)-1H-indazol-5-yl)pyridin-3-yl)cyclobutanecarboxamide] | 10 nM | 9 nM |

More lines, main results first:

| IC50 [1] | Structure (SMILES) | EC50 [2] |
| --- | --- | --- |
| 25 nM | Fc1ccc(-c2nccc3[nH]c(-c4n[nH]c5ccc(-c6cncnc6)cc45)nc23)cc1 [Compound 52, 4-(4-Fluorophenyl)-2-(5-(pyrimidin-5-yl)-1H-indazol-3-yl)-1H-imidazo[4,5-c]pyridine] | 539 nM |
| 4.1 nM | Nc1cncc(-c2ccc3[nH]nc(-c4nc5c(-c6ccccc6F)nccc5[nH]4)c3c2)c1 [Compound 55, 5-(3-(4-(2-Fluorophenyl)-1H-imidazo[4,5-c]pyridin-2-yl)-1H-indazol-5-yl)pyridin-3-amine] | 17 nM |
| 9.4 nM | CN(C)c1cncc(-c2ccc3[nH]nc(-c4nc5c(-c6ccccc6F)nccc5[nH]4)c3c2)c1 [Compound 59, 5-(3-(4-(2-Fluorophenyl)-1H-imidazo[4,5-c]pyridin-2-yl)-1H-indazol-5-yl)-N,N-dimethylpyridin-3-amine] | 18 nM |
| 5 nM | CC(C)C(=O)Nc1cncc(-c2ccc3[nH]nc(-c4nc5c(-c6ccccc6F)nccc5[nH]4)c3c2)c1 [Compound 61, N-(5-(3-(4-(2-Fluorophenyl)-1H-imidazo[4,5-c]pyridin-2-yl)-1H-indazol-5-yl)pyridin-3-yl)isobutyramide] | 79 nM |
| 50 nM | FC1(F)CCN(c2nccc3[nH]c(-c4n[nH]c5ccc(-c6cccnc6)cc45)nc23)CC1 [Compound 2273, 4-(4,4-Difluoropiperidin-1-yl)-2-(5-(pyridin-3-yl)-1H-indazol-3-yl)-1H-imidazo[4,5-c]pyridine] |  |
| 439 nM | CN1CCN(c2nccc3[nH]c(-c4n[nH]c5ccc(-c6cncc(F)c6)cc45)nc23)CC1 [Compound 2276, 2-(5-(5-Fluoropyridin-3-yl)-1H-indazol-3-yl)-4-(4-methylpiperazin-1-yl)-1H-imidazo[4,5-c]pyridine] |  |
| 315 nM | Fc1cncc(-c2ccc3[nH]nc(-c4nc5c(N6CCC(F)(F)CC6)nccc5[nH]4)c3c2)c1 [Compound 2277, 4-(4,4-Difluoropiperidin-1-yl)-2-(5-(5-fluoropyridin-3-yl)-1H-indazol-3-yl)-1H-imidazo[4,5-c]pyridine] |  |
| 20 nM | Cn1cc(-c2ccc3[nH]nc(-c4nc5c(N6CCC(F)(F)CC6)nccc5[nH]4)c3c2)cn1 [Compound 2281, 4-(4,4-Difluoropiperidin-1-yl)-2-(5-(1-methyl-1H-pyrazol-4-yl)-1H-indazol-3-yl)-1H-imidazo[4,5-c]pyridine] |  |
